# Patent US20180228801A1, “Method for Enhancing Learning Ability and Memory of Patients with Alzheimer's Disease using Mocetinostat” (National Taiwan Normal University, priority 2017, published 2018)
# How the values were obtained:
# Type in all cases: in vivo, mice (C57BL/6J)
# [1] = system: acetylated tissue proteins H3; experiment: Western blot, acetylated H3; conditions: chronic i.p. treatment, hippocampus
# Procedure: (§1) Further, in some embodiments of the present invention, C57BL/6J strain male mice (12 week old) are used as a subject in need. After mice are allowed to adapt to the environment for 6 days, mice are anesthetized with Avertin (0.4 g/kg; purchased from Sigma). The mice are fixed on a stereotactic apparatus for operation, followed by injecting oligomeric Aβ25-35 (10 nM, 3 μL) into bilateral hippocampal CA1 (AP: […] relative to the bregma; ML: ±[…] relative to the midline; DV: […] relative to the skull) on day 7. MGCD0103 and equal volume of vehicle (saline) are intraperitoneal (i.p.) injected once a day from day 8, the day after said operation, for 29 days. On day 24, the Open Field Test is performed; on day 26, the EPM is performed; on day 28, the Y-maze is performed; on days 30 to 36, MWM is performed; and on day 37, mice are euthanized for pathological analysis.
# [2] = system: mice with oligomeric Aβ25-35 or saline injected into hippocampal CA1; experiment: Morris Water Maze memory test
# Procedure: as §1
# MWM is a test for observing spatial learning and memory of mice by placing a platform in a wide pool. […] The behavior of finding the platform relates to a complex memory process within the brain, including 1) collecting the visual information (such as shape information of rectangles, circles and triangles) with respect to spatial positioning, and 2) processing, sorting, memorizing, fixing and recalling said information. In particular, the mice are placed in a pool filled with milky white non-toxic advertising pigment (used to make the water become opaque to hide the platform so that the mice may not know the position of the platform at the beginning), and are allowed to explore in search of the platform (which is fixed in a predetermined quadrant) underwater. The test is split into several phases as follows: 1) exploration phase: Place the mouse in the water and leave it there for 1 minute. If the mouse cannot find the platform in time, then move the mouse to the platform and leave there for 20 seconds. Then, place the mouse at a dry location and allow to rest until the next experiment; 2) acceptance phase: place the mouse into the water maze at four specific positions in turn in order to test whether the mouse can find the platform or not. Such training is repeated four times a day and continued for 4 days (each mouse is trained a total of 16 times). After 4 days of training, the learning ability of the mouse is measured in testing. After 24 hours of last testing trial, platform was removed and the mouse to freely swim in the pool and observe whether the mouse remembers the position of the platform or not (long-term spatial memory test). The swimming path is recorded by a CCD camera and analyzed with an image tracking system (EthoVision-XT).
# [3] = system: pERK; experiment: Western blot, pERK; conditions: hippocampus
# Procedure: as §1
# [4] = system: acetylated alpha-tubulin; experiment: Western blot, acetylated alpha-tubulin; conditions: chronic i.p. treatment, hippocampus
# Procedure: as §1
# [5] = system: mice with oligomeric Aβ25-35 injected into bilateral hippocampal CA1; experiment: Elevated Plus Maze Test; conditions: Aβ25-35 mice, high dose 0.5 mg/kg i.p. once a day
# Procedure: as §1
# By means of observing the mice exploring an unfamiliar environment, and the contradictory and conflicting behavior caused by fear of the animal of highly hanging arms of the maze, the anxiety level of the animal can be determined. […] The total time spent at the open arms for each mouse was recorded by a video tracking system (EthoVision-XT, Noldus).
# [6] = system: adrenergic neurons in locus coeruleus (LC); experiment: Immunohistochemical staining, adrenergic neurons (TH); conditions: saline-injected mice; Mean±SEM
# Procedure: as §1
# The inventor collects the brain tissue by perfusion followed by fixing and dehydrating, then, 30 μm frozen sections are obtained by a freezing microtome (CMS3050S, Leica). […] After that, avidin-biotin complex (ABC) is detected 1 hour after staining. […] After all sections have been stained, they are then fixed on a slide, dried, dehydrated, mounted, and photographed for quantity (performed by Image Pro Plus, Meida Cyberetics, USA). […]
# [7] = saline-injected (normal) mice, high dose 0.5 mg/kg i.p.
# [8] = saline-injected (normal) mice, low dose 0.01 mg/kg i.p.
compound,measurement,setting,value
"Nc1ccccc1NC(=O)c1ccc(CNc2nccc(-c3cccnc3)n2)cc1 [MGCD0103, N-(2-Aminophenyl)-4-[[(4-pyridin-3-ylpyrimidin-2-yl)amino]methyl] benzamide]",acetylation level of tissue proteins H3,[1],significantly improve
same,"learning curve, time required to reach the platform over 4 training days","[2]; Aβ25-35 mice, high dose 0.5 mg/kg i.p.",reduced time required to reach the platform
same,"time required to reach the platform, testing on day 5","[2]; Aβ25-35 mice, high dose 0.5 mg/kg i.p., vs Aβ25-35 alone",significantly less
same,time spent at the target quadrant after removing the platform (long-term memory),"[2]; Aβ25-35 mice, high dose 0.5 mg/kg i.p., vs Aβ25-35 group without treatment",significantly increased
same,"learning curve, time required to reach the platform over 4 training days","[2]; Aβ25-35 mice, low dose 0.01 mg/kg i.p.",reduced time required to reach the platform
same,"time required to reach the platform, testing on day 5","[2]; Aβ25-35 mice, low dose 0.01 mg/kg i.p., vs Aβ25-35 alone",significantly less
same,time spent at the target quadrant after removing the platform (long-term memory),"[2]; Aβ25-35 mice, low dose 0.01 mg/kg i.p., vs Aβ25-35 group without treatment",significantly increased
same,swimming velocity,"[2]; all groups, low and high dose, saline or Aβ25-35 mice",same velocity
same,"time required to reach the platform, testing on day 5","[2]; saline-injected (normal) mice treated with MGCD0103, dose not stated",significantly increased
same,"learning curve, time required to reach the platform over 4 training days",[2]; [7],does not significantly decrease
same,time spent at the target quadrant after removing the platform (long-term memory),[2]; [7],significantly decreased
same,"learning curve, time required to reach the platform over 4 training days",[2]; [8],does not significantly decrease
same,time spent at the target quadrant after removing the platform (long-term memory),[2]; [8],significantly decreased
same,expression of pERK,[3],do not show difference
same,acetylation level of alpha-tubulin,[4],significantly improve
same,time spent in the open arm,[5],significantly increased
same,"TH, numbers of adrenergic neurons",[6],44.58 ± 2.05
